Test results reported in US5413915A (priority 1991, dated 1995).

What was measured:
[1] = Oxidation-reduction potentials and redox mediation of dyes and reagents; format: physicochemical
Text: Diphenylmethane and triphenylmethane dyes of the present invention have midpoint oxidation-reduction ("redox") potentials ("Em7 ") apparently more negative than the Em7 value for NADPH or cytochrome P450 isozymes. […] Specific examples include pararosaniline (E1/2 =-0.75 V) and malachite green (E1/2 =-0.55 V) (W. Kemula and A. Axt (1969) op cit; Also H. O. Willard, L. L. Merritt, and J. A. Dean (1965) Instrumental Methods of Analysis, 4th Ed., pp. 682-685 and 760-763, for a comparison of E1/2 versus Em7. These potentials are too negative for direct measurement in water, as Em7 =-0.42 V for water breakdown to hydrogen.), both of which respond with color development upon microsomal metabolic activation.
Methylene blue is a rapidly mediating redox indicator, and as such is conventionally used for standardization of electrodes and electrochemical systems used in redox potentiometry. Systems containing ascorbate were therefore tightly clamped at a redox potential of +10 to +20 mV, regardless of any interfering influences such as oxygen. […] Spectrum "mb" is that of pure methylene blue in its oxidized state. Curve "oxid" is the spectrum of a mixed solution of methylene blue as in curve "mb" plus the fully oxidized pararosaniline. […]

[2] = literature (Kemula and Axt); cited from earlier work

For `N=C1C=CC(=C(c2ccc(N)cc2)c2ccc(N)cc2)C=C1` [pararosaniline], the “standard oxidation-reduction potential (Em7)” value ([1]; aqueous media, from FIG. 1 data) is listed as less than -0.1 V, the “Time to equilibrate in a redox voltage-clamped system” value ([1]; ascorbate / methylene blue clamped system) is listed as “two” and the E1/2 [2] is listed as -0.75 V.
